Laboratory results from patent US20240122879A1, “COMPOSITIONS AND METHODS FOR TREATING OCULAR CHEMICAL BURNS” (OHIO STATE INNOVATION FOUNDATION, priority 2022, published 2024).

Legend:
Format in all cases: cell-based, mouse
[1] = tested on: mCEC; assay: Transepithelial electrical resistance (TEER) of mCEC treated with recombinant proteins; settings: FIG. 4C
Procedure: (§1) Recombinant pro-IL-1β and pro-IL-18 proteins were generated from E. coli. The proteins were treated with caspase 1 to obtain the active forms.
mCEC were seeded in transwell inserts (2×10^5 per well) and allowed to become confluent. For the protein treatment, proteins were added into the culture medium 16 or 4 hours before measurement; the EVOM2 instrument was used to measure the TEER. For the co-culture experiments, mCEC were seeded in the transwell inserts and allowed to become confluent. The isolated primary neutrophils were then seeded into 24 well plates and the EVOM2 instrument was used to measure the TEER at 24 hr.

[2] = tested on: corneal epithelial cells; assay: ZO-1 staining of corneal epithelial cells treated with recombinant proteins; settings: FIG. 4D, 4E
Procedure: as §1

[3] = tested on: mCEC; assay: Scratch wound assay of mCECs treated with recombinant cytokines; settings: recombinant proteins, FIG. 4A, 4B
Procedure: as §1
The coding sequences of human pro-IL-18 and pro-IL-1β were cloned into the PET28a vector, where an N-terminal 6xHis tag is added. The purification procedure is similar to the published protocol with minor modifications (Ramirez, et al. J Biol Chem. 2018 293(18): 7058-7067). Briefly, the respective plasmid was transformed into BL21 […] chemically competent cells. A single colony was picked to grow in LB media at 37° C. until OD600 researched 0.6, and 0.5 mM IPTG was used for overnight induction at ˜16° C. Harvested cells were collected by centrifugation, followed by resuspension in 50 mM Hepes (pH 7.5), 5 mM MgCl2, 1 mM PMSF, ˜0.5 mg/ml lysozyme and 50-100 U DNase I. After sonication, the cell lysates were centrifuged. The supernatant was then applied to a Ni-NTA affinity chromatography, where buffer A contained 50 mM Hepes (pH 7.5) and Buffer B contained an extra 500 mM imidazole. Fractions with the highest purities were pooled and applied to a diethylaminoethyl-cellulos (DEAE) ion exchange chromatography, where buffer A′ contained 50 mM Hepes (pH 7.5) and Buffer B′ contained an extra 500 mM NaCl. As judged by SDS PAGE, fractions with >95% purity were pooled and dialyzed in 50 mM Hepes (pH 7.5) and 100 mM NaCl.
Recombinant human caspase-1 was purchased from Enzo Life Sciences (ALX-201-056). The cleavage of pro-IL-18 or pro-IL-1β was performed at 37° C. in PBS buffer containing 2 mM DTT.
To induce cellular migration, an in vitro scratch test was performed using mCECs. Cells were treated with dissected corneas or cytokines when they reached confluence, were subsequently scratched with a micropipette tip, and incubated for up to 12 hrs. Images were taken at 0, 3, 6, and 9 hours after the initial scratch. Images of wound closure were quantified by using ImageJ software.

Substance | epithelial tight junctions / electrical resistance by TEER [1] | tight junctions by ZO-1 staining [2] | mCEC wound closure / migration [3] | also measured
active IL-1β: recombinant human pro-IL-1β from E. coli treated with caspase 1 to obtain the active form | disrupted epithelial cell tight junctions | disrupted epithelial cell tight junctions | significantly delayed mCEC wound closure | epithelial tight junctions / electrical resistance by TEER ([1]; listed as activated IL-1β): significantly reduce the electrical resistance; tight junctions by ZO-1 staining ([2]; listed as activated IL-1β): tight junction was disrupted; mCEC wound closure / migration ([3]; listed as activated IL-1β): significantly suppress corneal epithelial cell migration
active IL-18: recombinant human pro-IL-18 from E. coli treated with caspase 1 to obtain the active form | disrupted epithelial cell tight junctions | disrupted epithelial cell tight junctions | significantly delayed mCEC wound closure | epithelial tight junctions / electrical resistance by TEER ([1]; listed as activated IL-18): significantly reduce the electrical resistance; tight junctions by ZO-1 staining ([2]; listed as activated IL-18): tight junction was disrupted; mCEC wound closure / migration ([3]; listed as activated IL-18): significantly suppress corneal epithelial cell migration
boiled IL-1β: boiled recombinant IL-1β protein used as control | – | – | failed to alter mCEC migration | –
boiled IL-18: boiled recombinant IL-18 protein used as control | – | – | failed to alter mCEC migration | –
pro-IL-1β: recombinant pro-IL-1β protein generated from E. coli, used as control | – | – | failed to alter mCEC migration | –
pro-IL-18: recombinant pro-IL-18 protein generated from E. coli, used as control | – | – | failed to alter mCEC migration | –
